Assays:
[1] = test system: FLT3-ITD-positive AML primagraft cells; assay: FLT3 immunoblot in ex vivo-treated AML primagraft cells; format: cell-based, human; details: 21 hours of treatment; concentration of 20
Procedure: (§1) Protein lysate preparation, immunoblotting, and immunoprecipitation were carried out as previously described in Weisberg et al. (2002) Cancer Cell 1:433-443.

[2] = test system: panel of 33 recombinant DUB enzymes; details: 10 μM compound; diubiquitin as substrate
Procedure: […] […] The enzymes were pre-incubated with the compounds for 30 min at room temperature at 10 μM final concentration. 0.48 μl of di-ubiquitin topoisomers were added to the reaction mixture to initiate the reaction. The reaction was sealed and incubated for 30 min at room temperature and stopped by adding TFA to a final concentration of 2% (v/v).
(§2) Mass spectrometry data was acquired on an UltrafleXtreme MALDI-TOF mass spectrometer (Bruker Daltonics) with Compass 1.3 control and processing software. The sample carrier was taught before each analysis to optimize and centre laser shooting. […] Samples were analysed in automatic mode (AutoXecute, Bruker Daltonics). […] An amount of 3,500 shots were summed up in “random walk” and with “large” smartbeam laser focus. Spectra were automatically calibrated on the ^15N-Ub m/z and processed using smoothing (Savitzky-Golay algorithm) and baseline subtraction (‘TopHat’) for reproducible peak annotation on non-resolved isotope distributions: one cycle, 0.2 m/z for the width. For area calculation, the complete isotopic distribution was taken into account. An in-house made script was used to report—^15N and mono-ubiquitin areas; plotting of graphs, calculation of standard deviation and coefficient of variation (%) were processed in Microsoft Excel.

MOLM14 cells = assay: Immunoblot of FLT3, Beclin-1, AKT, ERK1/ERK2 in MOLM14 cells; format: cell-based, human
Text: The following antibodies were purchased from Cell Signaling Technology (Danvers, Mass.): total AKT (rabbit, #9272) and total p44/42 MAPK (Erk1/2) (3A7) (mouse, #9107) were used at 1:1000 dilution. Anti-GAPDH (D16H-11) XP (R) (rabbit mAb, #5174) was used at 1:1000 dilution. Beclin-1 (rabbit, #3738) was used at 1:1000. USP10 (D7A5) (rabbit, #8501) was used at 1:1000 dilution. P53 (rabbit, #9282) was used at 1:1000 dilution. β-tubulin (rabbit, #2146s) was used 1:1000.
(§3) FLT3/Flk-2 (C-20) (sc-479) and Ub (P4D1) (mouse, sc-8017) were purchased from Santa Cruz Biotechnology, Inc. (Dallas, Tex.) and used at 1:1000 dilution for immunoblotting. Anti-pTyr (mouse, clone 4G10) was purchased from Upstate Biotechnology (Lake Placid, N.Y.) and was used at 1:1000 dilution. Anti-HAUSP/USP7 antibody (rabbit, ab4080) and anti-ubiquitin antibody (rabbit, ab7780) were purchased from Abcam (Cambridge, Mass.) and used at 1:1000 dilution.
as §1

USP10 [3] = molecular target: USP10 (Homo sapiens, UniProt Q14694); assay: MALDI TOF DUB assay with diubiquitin substrate; format: biochemical; details: diubiquitin (K11) as substrate
Procedure: Thirty-one human DUBs were freshly diluted in the reaction buffer (40 mM Tris-HCl, pH 7.6, 5 mM DTT, 0.005% BSA) at different concentrations (see Table 10). […] The enzymes were pre-incubated with the compounds for 30 min at room temperature at 10 μM final concentration. 0.48 μl of di-ubiquitin topoisomers were added to the reaction mixture to initiate the reaction. The reaction was sealed and incubated for 30 min at room temperature and stopped by adding TFA to a final concentration of 2% (v/v).
Mass spectrometry data was acquired on an UltrafleXtreme MALDI-TOF mass spectrometer (Bruker Daltonics) with Compass 1.3 control and processing software. The sample carrier was taught before each analysis to optimize and centre laser shooting. […] Samples were analysed in automatic mode (AutoXecute, Bruker Daltonics). […] An amount of 3,500 shots were summed up in “random walk” and with “large” smartbeam laser focus. Spectra were automatically calibrated on the ^15N-Ub m/z and processed using smoothing (Savitzky-Golay algorithm) and baseline subtraction (‘TopHat’) for reproducible peak annotation on non-resolved isotope distributions: one cycle, 0.2 m/z for the width. For area calculation, the complete isotopic distribution was taken into account. […]

Ba/F3-FLT3-ITD cells = assay: Proliferation of Ba/F3-FLT3-ITD cells; format: cell-based, murine
Text: Nomo-1, P31-FUJ, and NB4 were obtained from Dr. Gary Gilliland. MV4, 11 cells were obtained from Dr. Anthony Letai. Hel, K562, THP, U937, TF-1 and K052 cells were purchased from the American Type Culture Collection (ATCC) (Manassas, Va., USA). […] Cell lines were submitted for cell line authentication and were authenticated within 6 months of manuscript preparation through cell line short tandem repeat (STR) profiling (DDC Medical, Fairfield, Ohio and Molecular Diagnostics Laboratory, Dana Farber Cancer Institute). […] PBMCs were generously provided by Dr. Steven Treon and Dr. Guang Yang.
The CellTiter-Glo® assay (Promega, Madison, Wis.) was used for proliferation studies and carried out according to manufacturer instructions. Cell viability is reported as percentage of control (untreated) cells, and error bars represent the standard error of the mean for each data point.

Ba/F3-D835Y cells [4] = assay: Immunoblot of FLT3 in Ba/F3-D835Y cells; format: cell-based, murine
Text: as §3, §1

[5] = test system: wt FLT3-expressing leukemia cell lines; assay: FLT3 protein in wt FLT3-expressing leukemia cell lines (immunoblot); format: cell-based, human; details: approximately 23 hours of treatment
Procedure: as §1

USP7 = USP7 (Homo sapiens, UniProt Q93009); assay: MALDI TOF DUB assay with diubiquitin substrate; format: biochemical; details: diubiquitin as substrate, same assay as USP10
Procedure: Thirty-one human DUBs were freshly diluted in the reaction buffer (40 mM Tris-HCl, pH 7.6, 5 mM DTT, 0.005% BSA) at different concentrations (see Table 10). […] 0.48 μl of di-ubiquitin topoisomers were added to the reaction mixture to initiate the reaction. The reaction was sealed and incubated for 30 min at room temperature and stopped by adding TFA to a final concentration of 2% (v/v).
as §2

USP10 [6] = assay: USP10 target engagement in cells, labeling with HA-Ub-VS; format: cell-based; details: lysates from live treated cells
Procedure: Cells were harvested, washed with PBS, and lysed in 1% NP-40, 10% glycerol, 2% sodium orthovanadate, and HALT protease inhibitor cocktail (ThermoFisher). Lysate was diluted to 50 ug in 30 uL lysis buffer with 1% DTT and incubated on ice for 15 minutes. 0.25 ug HA-Ub-VS was added, and the sample was gently rocked at room temperature for 30 minutes, then denatured with LDS sample buffer.

Ba/F3-D835Y cells [7] = test system: Ba/F3-D835Y cells

USP7, sequence (Q93009 whole entry): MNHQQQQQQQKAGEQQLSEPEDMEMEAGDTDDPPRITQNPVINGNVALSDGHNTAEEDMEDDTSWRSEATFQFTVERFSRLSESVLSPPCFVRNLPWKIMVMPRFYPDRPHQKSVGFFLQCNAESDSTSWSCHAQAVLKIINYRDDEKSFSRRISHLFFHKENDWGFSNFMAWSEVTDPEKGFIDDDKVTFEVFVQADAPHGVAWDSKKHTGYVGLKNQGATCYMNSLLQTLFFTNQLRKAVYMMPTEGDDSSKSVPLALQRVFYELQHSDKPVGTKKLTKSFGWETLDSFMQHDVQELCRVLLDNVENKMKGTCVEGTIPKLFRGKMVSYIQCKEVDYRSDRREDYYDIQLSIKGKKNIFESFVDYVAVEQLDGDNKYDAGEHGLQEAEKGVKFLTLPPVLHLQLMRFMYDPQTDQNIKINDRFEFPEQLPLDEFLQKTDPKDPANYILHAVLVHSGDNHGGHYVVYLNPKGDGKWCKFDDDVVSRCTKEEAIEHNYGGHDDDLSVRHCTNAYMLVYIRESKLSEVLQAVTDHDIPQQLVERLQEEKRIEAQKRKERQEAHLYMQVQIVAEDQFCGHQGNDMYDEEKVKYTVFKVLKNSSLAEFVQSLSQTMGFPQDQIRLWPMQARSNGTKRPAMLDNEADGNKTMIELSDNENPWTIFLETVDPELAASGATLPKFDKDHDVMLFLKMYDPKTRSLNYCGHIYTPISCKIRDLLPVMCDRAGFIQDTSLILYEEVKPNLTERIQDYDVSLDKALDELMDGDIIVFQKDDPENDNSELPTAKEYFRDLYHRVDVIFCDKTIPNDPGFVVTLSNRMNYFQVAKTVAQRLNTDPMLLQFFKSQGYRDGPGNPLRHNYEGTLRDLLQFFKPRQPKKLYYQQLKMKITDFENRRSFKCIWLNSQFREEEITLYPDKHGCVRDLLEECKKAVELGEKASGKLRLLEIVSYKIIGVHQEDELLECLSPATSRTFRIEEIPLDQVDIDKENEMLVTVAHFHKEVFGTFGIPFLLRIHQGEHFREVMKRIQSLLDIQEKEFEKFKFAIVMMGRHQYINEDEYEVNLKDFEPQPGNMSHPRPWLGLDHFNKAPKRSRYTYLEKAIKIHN
USP10 (Homo sapiens, UniProt Q14694), sequence (Q14694 whole entry): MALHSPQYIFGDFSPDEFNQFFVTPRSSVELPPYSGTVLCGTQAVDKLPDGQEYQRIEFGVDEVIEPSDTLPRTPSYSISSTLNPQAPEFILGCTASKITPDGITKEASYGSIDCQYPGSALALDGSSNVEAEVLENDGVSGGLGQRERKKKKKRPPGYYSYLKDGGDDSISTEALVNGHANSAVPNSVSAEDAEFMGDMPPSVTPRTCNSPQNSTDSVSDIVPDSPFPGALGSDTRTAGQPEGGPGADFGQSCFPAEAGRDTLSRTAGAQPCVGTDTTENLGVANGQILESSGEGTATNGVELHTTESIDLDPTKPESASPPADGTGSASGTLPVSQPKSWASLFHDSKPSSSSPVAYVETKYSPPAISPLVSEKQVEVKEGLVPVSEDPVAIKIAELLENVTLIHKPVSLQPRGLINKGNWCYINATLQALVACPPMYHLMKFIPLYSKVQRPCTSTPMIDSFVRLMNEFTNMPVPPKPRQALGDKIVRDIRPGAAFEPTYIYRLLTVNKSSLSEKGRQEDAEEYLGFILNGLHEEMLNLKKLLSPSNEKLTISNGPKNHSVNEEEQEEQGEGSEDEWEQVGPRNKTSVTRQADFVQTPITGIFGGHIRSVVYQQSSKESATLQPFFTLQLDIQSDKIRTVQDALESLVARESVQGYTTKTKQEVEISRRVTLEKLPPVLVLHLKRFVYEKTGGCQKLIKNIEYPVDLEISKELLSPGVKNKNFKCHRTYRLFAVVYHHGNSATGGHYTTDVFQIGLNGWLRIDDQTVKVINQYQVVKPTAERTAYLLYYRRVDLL

CN(CCCNC(=O)c1ccc2nc3c(c(Cl)c2c1)CCCC3)Cc1ccccc1 [HBX19818, reference compound]
FLT3 levels via immunoblotting [1]: no trace of FLT3
Inhibition of DUBs other than USP10 [2]: ≤ 20%
Protein levels of Beclin-1 and FLT3 (MOLM14 cells; 20 μM): strongly decreased
Expression of AKT and ERK1/ERK2 downstream of FLT3 (MOLM14 cells; approximately 23 hours of treatment): unchanged
IC50 (USP10 [3]): 14 µM
Proliferation EC50 (Ba/F3-FLT3-ITD cells): single digit micromolar range
FLT3 protein levels (Ba/F3-D835Y cells [4]): more modest loss of FLT3 protein
FLT3 protein [5]: little to no impact
IC50 (USP7): 57 µM
Inhibitor concentration blocking USP10 labeling by HA-Ub-VS (USP10 [6]): low micromolar range
Proliferation EC50 (Ba/F3-D835Y cells [7]): single digit micromolar range

From patent US11136409B2, “Compositions and methods for identification, assessment, prevention, and treatment of AML using USP10 biomarkers and modulators” (Dana-Farber Cancer Institute, Inc., priority 2016, dated 2021)
